Test results as given in ChEMBL document CHEMBL1131690, “Synthesis and evaluation of anthranilic acid-based transthyretin amyloid fibril inhibitors” (Bioorg Med Chem Lett, 1999).

How the values were obtained:
[1] = Binding parameter for complete inhibition of Wild type Transthyretin amyloid fibril formation at pH 4.4 with negative cooperativity by the compound at a concentration of (10.8)
[2] = Concentration completly inhibiting Wild type TTR amyloid fibril formation at pH 4.4; type: functional

Which KD1 [1] does the source give for `O=C(O)c1ccccc1Nc1cccc(C(F)(F)F)c1` here?
Its KD1 is 30.1 nM.

What about the KD2 [1] of the same compound?
The KD2 was 255 nM.

For `O=C(O)c1cccc(Nc2ccccc2C(=O)O)c1`, which Concentration [2] is on record?
Its Concentration is 7.6 µM.
